Assay results published in ChEMBL document CHEMBL4321804, “Myrmenaphthol A, Isolated from a Hawaiian Sponge of the Genus Myrmekioderma” (J Nat Prod, 2019).
In brackets after ≈: the same amount, converted by molar mass. Activity calls are given as the source filed them. The rule behind the calls is not given here.

How the values were obtained:
[1] = molecular target: T1, Estrogen receptor (Homo sapiens) (UniProt P03372); assay: Antagonist activity at 17-beta-estradiol-stimulated GST-tagged ER-alpha ligand binding domain (unknown origin) assessed as fluorescein PGC1a coactivator peptide recruitment incubated up to 24 hrs by LanthaScreen TR-FRET co-regulator assay
T1 sequence (whole entry): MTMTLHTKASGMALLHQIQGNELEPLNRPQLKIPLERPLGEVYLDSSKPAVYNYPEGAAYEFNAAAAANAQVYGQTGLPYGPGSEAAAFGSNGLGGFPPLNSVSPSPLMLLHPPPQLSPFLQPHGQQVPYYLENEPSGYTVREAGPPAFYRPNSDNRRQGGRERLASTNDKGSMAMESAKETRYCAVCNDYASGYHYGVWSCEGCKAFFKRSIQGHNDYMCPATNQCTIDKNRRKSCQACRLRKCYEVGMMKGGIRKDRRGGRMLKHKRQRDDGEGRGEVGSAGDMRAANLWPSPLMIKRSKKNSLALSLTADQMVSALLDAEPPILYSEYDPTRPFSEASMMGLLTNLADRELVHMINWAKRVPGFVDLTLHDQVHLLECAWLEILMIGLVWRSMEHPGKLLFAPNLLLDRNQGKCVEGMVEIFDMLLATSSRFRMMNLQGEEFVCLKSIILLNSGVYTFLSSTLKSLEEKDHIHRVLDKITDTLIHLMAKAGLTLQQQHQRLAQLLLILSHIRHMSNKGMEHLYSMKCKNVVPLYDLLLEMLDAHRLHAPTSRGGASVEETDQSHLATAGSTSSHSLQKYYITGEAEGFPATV

[2] = molecular target: T1, Estrogen receptor (Homo sapiens); assay: Agonist activity at GST-tagged ER-alpha ligand binding domain (unknown origin) assessed as fluorescein PGC1a coactivator peptide recruitment incubated up to 24 hrs by LanthaScreen TR-FRET co-regulator assay
[3] = molecular target: T1, Estrogen receptor (Homo sapiens); assay: Inhibition of 17-beta-estradiol-stimulated human ER alpha-binding domain at 100 uM by LanthaScreen TR-FRET coregulator assay
HeLa = assay: Cytotoxicity against human HeLa cells incubated for 72 hrs by MTT assay; format: functional, cell-based
P388 = assay: Cytotoxicity against mouse P388 cells incubated for 72 hrs by MTT assay; format: functional, cell-based; details: P388, 72 h
Estrogen receptor = molecular target: T2, Estrogen receptor (Homo sapiens, UniProt P03372); assay: Displacement of [3H]-estradiol from human recombinant estrogen receptor expressed in insect cells incubated for 17 hrs by radioactive receptor binding assay
T2 sequence (P03372 whole entry): T1 sequence (whole entry)

| Compound | inhibition [1] | Activity [2] | inhibition [3] | IC50 (HeLa) | IC50 (P388) | IC50 (Estrogen receptor) |
| --- | --- | --- | --- | --- | --- | --- |
| C/C=C1/C(=O)C(O)=C2c3ccc4ccc(O)cc4c3CC[C@@]21C | inactive | inactive | 30% |  |  |  |
| C[C@@H]1C[C@@]12c1ccc3c(ccc4ccc(O)cc43)c1C[C@@H]2O | inactive | inactive | 30% | 0.4 µg/mL (≈ 1.38 µM) | 4.5 µg/mL (≈ 15.5 µM) | 10 nM |
